Results taken from ChEMBL document CHEMBL1130684, “Potent, non-thiol inhibitors of farnesyltransferase” (Bioorg Med Chem Lett, 1998).

What follows are compounds tested against T1, Protein farnesyltransferase (Homo sapiens, UniProt P49354+P49356) (assay: Inhibition of FTase-catalyzed incorporation of [3H]- FPP radioligand into recombinant Ha-Ras by 50% at an enzyme concentration of 1 nM.).
Assay type: protein-complex assay

| IC50 | Structure (SMILES) |
| --- | --- |
| 120 nM | CCC(C)[C@@H](CN(CC(=O)N[C@@H](CCSC)C(=O)O)Cc1cccc2ccccc12)NC(=O)CSCCc1ccccc1 (some centres not stated) |
| 36 nM | CCC(C)[C@@H](CN(CC(=O)N[C@@H](CCSC)C(=O)O)Cc1cccc2ccccc12)NC(=O)CSCc1ccccc1 (some centres not stated) |
| > 10000 nM | CCC(C)[C@@H](CN(CC(=O)N[C@@H](CCSC)C(=O)O)Cc1ccccc1)NC(=O)CSc1nnc(N)s1 (some centres not stated) |
| 29 nM | CCC(C)[C@@H](CN(CC(=O)N[C@@H](CCSC)C(=O)O)Cc1cccc2ccccc12)NC(=O)CSCc1ccc(-c2ccccc2)cc1 (some centres not stated) |
| 23 nM | CCC(C)[C@@H](CN(CC(=O)N[C@@H](CCSC)C(=O)O)Cc1cccc2ccccc12)NC(=O)CSCc1cccc([N+](=O)[O-])c1 (some centres not stated) |
| 37 nM | CCC(C)[C@@H](CN(CC(=O)N[C@@H](CCSC)C(=O)O)Cc1cccc2ccccc12)NC(=O)CSCc1ccc(C(F)(F)F)cc1 (some centres not stated) |
| 230 nM | CCC(C)[C@@H](CN(CC(=O)N[C@@H](CCSC)C(=O)O)Cc1cccc2ccccc12)NC(=O)COCc1ccccc1 (some centres not stated) |
| 31 nM | CCC(C)[C@@H](CN(CC(=O)N[C@@H](CCSC)C(=O)O)Cc1cccc2ccccc12)NCc1cnc[nH]1 (some centres not stated) |
| > 10000 nM | CCC(C)[C@@H](CN(CC(=O)N[C@@H](CCSC)C(=O)O)Cc1ccccc1)NC(=O)CSc1nc2ccccc2[nH]1 (some centres not stated) |
| 190 nM | CCC(C)[C@@H](CN(CC(=O)N[C@@H](CCSC)C(=O)O)Cc1cccc2ccccc12)NC(=O)CNCc1ccccc1 (some centres not stated) |
| 160 nM | CCC(C)[C@@H](CN(CC(=O)N[C@@H](CCSC)C(=O)O)Cc1cccc2ccccc12)NC(=O)C[S+]([O-])Cc1ccccc1 (some centres not stated) |
| 310 nM | CCC(C)[C@@H](CN(CC(=O)N[C@@H](CCSC)C(=O)O)Cc1cccc2ccccc12)NC(=O)CS(=O)(=O)Cc1ccccc1 (some centres not stated) |
| 14 nM | CCC(C)[C@@H](CN(CC(=O)N[C@@H](CCSC)C(=O)O)Cc1cccc2ccccc12)NC(=O)CSCc1ccc(C)cc1 (some centres not stated) |
| 86 nM | CCC(C)[C@@H](CN(CC(=O)N[C@@H](CCSC)C(=O)O)Cc1cccc2ccccc12)NC(=O)CSCc1ccccc1[N+](=O)[O-] (some centres not stated) |
| 17 nM | CCC(C)[C@@H](CN(CC(=O)N[C@@H](CCSC)C(=O)O)Cc1cccc2ccccc12)NC(=O)CSCc1ccc(OC)cc1 (some centres not stated) |
| 230 nM | CCC(C)[C@@H](CN(CC(=O)N[C@@H](CCSC)C(=O)O)Cc1cccc2ccccc12)NC(=O)CCCCc1ccccc1 (some centres not stated) |
| 230 nM | CCC(C)[C@@H](CN(CC(=O)N[C@@H](CCSC)C(=O)O)Cc1cccc2ccccc12)NC(=O)CSCc1ccncc1 (some centres not stated) |
| 16 nM | CCC(C)[C@@H](CN(CC(=O)N[C@@H](CCSC)C(=O)O)Cc1cccc2ccccc12)NC(=O)CSCc1ccc(S(C)(=O)=O)cc1 (some centres not stated) |
| 260 nM | CCC(C)[C@@H](CN(CC(=O)N[C@@H](CCSC)C(=O)O)Cc1cccc2ccccc12)NC(=O)CN(Cc1ccccc1)C(=O)OC(C)(C)C (some centres not stated) |
| > 10000 nM | CCC(C)[C@@H](CN(CC(=O)N[C@@H](CCSC)C(=O)O)Cc1ccccc1)NC(=O)CSc1nc[nH]n1 (some centres not stated) |
| 51 nM | CCC(C)[C@@H](CN(CC(=O)N[C@@H](CCSC)C(=O)O)Cc1cccc2ccccc12)NC(=O)CSc1ccccc1 (some centres not stated) |
| 17 nM | CCC(C)[C@@H](CN(CC(=O)N[C@@H](CCSC)C(=O)O)Cc1cccc2ccccc12)NC(=O)CSc1ccncc1 (some centres not stated) |
| 5.4 nM | CCC(C)[C@@H](CN(CC(=O)N[C@@H](CCSC)C(=O)O)Cc1cccc2ccccc12)NC(=O)CSCc1ccc(C#N)cc1 (some centres not stated) |
| 6.2 nM | CCC(C)[C@@H](CN(CC(=O)N[C@@H](CCSC)C(=O)O)Cc1cccc2ccccc12)NC(=O)CSCc1ccc([N+](=O)[O-])cc1 (some centres not stated) |
| 70 nM | CCC(C)[C@@H](CN(CC(=O)N[C@@H](CCSC)C(=O)O)Cc1cccc2ccccc12)NC(=O)CN(Cc1ccccc1)C(C)=O (some centres not stated) |
| 19 nM | CCC(C)[C@@H](CN(CC(=O)N[C@@H](CCSC)C(=O)O)Cc1cccc2ccccc12)NC(=O)CCCc1ccc([N+](=O)[O-])cc1 (some centres not stated) |

These compounds were tested against T1, Protein farnesyltransferase (assay: Inhibition of [3H]- FPP incorporation into recombinant Ha-Ras by farnesyl transferase at 10 pM).
Assay type: protein-complex assay

| IC50 | Structure (SMILES) |
| --- | --- |
| 0.123 nM | CCC(C)[C@@H](CN(CC(=O)N[C@@H](CCSC)C(=O)O)Cc1cccc2ccccc12)NC[C@@H](N)CS (some centres not stated) |
